Test results as given in patent US20250099466A1 (BRISTOL-MYERS SQUIBB COMPANY, priority 2021, published 2025).
Entries after “also recorded” stand apart in the source; their conditions may differ.

What was measured:
[1] = system: subjects undergoing elective total knee replacement surgery; test: Phase 2 study after elective total knee replacement: bleeding events (safety); assay type: in vivo, human; conditions: safety set, on-treatment
Excerpt: The principal safety outcome was any bleeding, which was defined as the composite of major, clinically relevant nonmajor, and minimal bleeding. Secondary safety outcomes were: (a) major bleeding, (b) clinically relevant nonmajor bleeding, (c) clinically relevant bleeding, defined as the composite of major and clinically relevant nonmajor bleeding, and (d) minimal bleeding. Bleeding was classified as major if it was overt and associated with a decrease in hemoglobin of 2 g/dL or more or necessitated transfusion of 2 or more units of blood with a temporal association within 24 to 48 hours of the bleed; or if it occurred in a critical area or organ or contributed to death. […] Overt bleeding not meeting the criteria for major bleeding, but that necessitated medical examination or intervention or had clinical consequences, was classified as clinically relevant nonmajor bleeding. Bleeding not meeting the criteria for major or clinically relevant nonmajor bleeding was classified as minimal bleeding (Schulman et al., Definition of major bleeding in clinical investigations of antihemostatic medicinal products in surgical patients. J Thromb Haemost 2010; 8:202-4).
Analysis of safety outcomes was performed in the safety population, which included all randomized patients who received at least one dose of study medication; the time for analysis included the on-treatment period plus 2 days. For each bleeding outcome, the rate in each milvexian group was compared with that in the enoxaparin group with the same methods used for evaluation of the secondary efficacy outcomes. The Kaplan-Meier method was used to assess the time to the first occurrence of any bleeding with milvexian or enoxaparin.
The key secondary objective of the study was to assess the dose-response trend of milvexian for the occurrence of Any Bleeding events during the treatment period. Any Bleeding was defined as the composite of major bleeding according to the International Society on Thrombosis and Haemostasis (ISTH) criteria modified for the surgical setting, clinically relevant nonmajor bleeding events or minimal bleeding events as assessed by the clinical events committee (CEC).

[2] = system: electrically induced carotid artery thrombus (ECAT) in rabbits; test: Treatment rabbit ECAT model (dosing 15 minutes after vessel injury); assay type: in vivo; conditions: for carotid blood flow at 90 minutes (% of control carotid blood flow): n=6; for reduction in thrombus weight: treatment ECAT
Method: The rabbit ECAT model as described by Wong et al., Nonpeptide factor Xa inhibitors: II.
Male New Zealand white rabbits were anesthetized with ketamine (50 mg/kg+50 mg/kg/h intramuscularly) and xylazine (10 mg/kg+10 mg/kg/h intramuscularly). Thrombosis was induced by electrical stimulation of the control carotid artery for 3 minutes at 4 mA using an external stainless-steel bipolar electrode. Carotid blood flow was measured with an electromagnetic flow probe continuously over a 90-minute period to monitor thrombosis induced occlusion. Integrated carotid blood flow was measured by the area under the flowtime curve (see Wong et al.). In addition, thrombus from the injured artery was removed, blotted twice on a weighing paper to remove residual fluid, and weighed.
To achieve a stable plasma level with minimum experimental variability, compounds were administered by IV infusion. […] The IV infusion was continued throughout the experiment for both models.
(§1) Integrated blood flow, thrombus weight, aPTT (activated partial thromboplastin time), TT (thrombin time), and PT (prothrombin time) were also measured.

aPTT, TT, and PT = test: Ex vivo aPTT, TT and PT in ECAT rabbits; parameters: species or system rabbit
Method: as §1

Half-life of milvexian = conditions: human, in vivo
[3] = milvexian 50 mg BID, listed as Milvexian
[4] = milvexian 100 mg BID, listed as Milvexian
[5] = milvexian 200 mg once daily, listed as Milvexian
[6] = milvexian all regimens combined
[7] = milvexian combined BID regimens

C[C@@H]1CCC[C@H](n2cnc(-c3cc(Cl)ccc3-n3cc(Cl)nn3)cc2=O)c2cc(ccn2)-c2c(cnn2C(F)F)NC1=O [milvexian, (5R,9S)-9-(4-(5-chloro-2-(4-chloro-1H-1,2,3-triazol-1-yl)phenyl)-6-oxopyrimidin-1(6H)-yl)-21-(difluoromethyl)-5-methyl-21H-3-aza-1(4,2)-pyridina-2(5,4)-pyrazolacyclononaphan-4-one]
Any Bleeding % ([1]; milvexian 25 mg BID): 1.4%
Any Bleeding RR vs Enox ([1]; milvexian 25 mg BID): 0.33
Any Bleeding n ([1]; milvexian 25 mg BID): 2 n
Major+CRNM bleeding % ([1]; milvexian 25 mg BID): 0%
Major+CRNM bleeding n ([1]; milvexian 25 mg BID): 0 n
Minimal Bleeding % ([1]; milvexian 25 mg BID): (1.4%)
Minimal Bleeding RR vs Enox ([1]; milvexian 25 mg BID): 0.50
Minimal Bleeding n ([1]; milvexian 25 mg BID): 2 n
Any Bleeding % ([1]; milvexian 25 mg BID, listed as Milvexian): (1.4%)
Any Bleeding % ([1]; milvexian 25 mg once daily): 0%
Any Bleeding n ([1]; milvexian 25 mg once daily): 0 n
Major+CRNM bleeding n ([1]; milvexian 25 mg once daily): 0 n
Minimal Bleeding n ([1]; milvexian 25 mg once daily): 0 n
Any Bleeding % ([1]; milvexian 50 mg BID): 4.7%
Any Bleeding RR vs Enox ([1]; milvexian 50 mg BID): 1.15
Any Bleeding n ([1]; milvexian 50 mg BID): 7 n
Major+CRNM bleeding % ([1]; milvexian 50 mg BID): 1.4%
Major+CRNM bleeding RR vs Enox ([1]; milvexian 50 mg BID): 0.79
Major+CRNM bleeding n ([1]; milvexian 50 mg BID): 2 n
Minimal Bleeding % ([1]; milvexian 50 mg BID): (3.4%)
Minimal Bleeding RR vs Enox ([1]; milvexian 50 mg BID): 1.23
Minimal Bleeding n ([1]; milvexian 50 mg BID): 5 n
Any Bleeding % [1, 3]: (4.7%)
Major+CRNM bleeding % [1, 3]: (1.4%)
Any Bleeding % ([1]; milvexian 50 mg once daily): (5.3%)
Any Bleeding RR vs Enox ([1]; milvexian 50 mg once daily): 1.17
Any Bleeding n ([1]; milvexian 50 mg once daily): 8 n
Major+CRNM bleeding % ([1]; milvexian 50 mg once daily): 1.3%
Major+CRNM bleeding RR vs Enox ([1]; milvexian 50 mg once daily): 0.68
Major+CRNM bleeding n ([1]; milvexian 50 mg once daily): 2 n
Minimal Bleeding % ([1]; milvexian 50 mg once daily): (4.0%)
Minimal Bleeding RR vs Enox ([1]; milvexian 50 mg once daily): 1.35
Minimal Bleeding n ([1]; milvexian 50 mg once daily): 6 n
Major+CRNM bleeding % ([1]; milvexian 50 mg once daily, listed as Milvexian): (1.3%)
Any Bleeding % ([1]; milvexian 100 mg BID): 4.7%
Any Bleeding RR vs Enox ([1]; milvexian 100 mg BID): 1.14
Any Bleeding n ([1]; milvexian 100 mg BID): 7 n
Major+CRNM bleeding % ([1]; milvexian 100 mg BID): 0.7%
Major+CRNM bleeding RR vs Enox ([1]; milvexian 100 mg BID): 0.39
Major+CRNM bleeding n ([1]; milvexian 100 mg BID): 1 n
Minimal Bleeding % ([1]; milvexian 100 mg BID): (4.7%)
Minimal Bleeding RR vs Enox ([1]; milvexian 100 mg BID): 1.71
Minimal Bleeding n ([1]; milvexian 100 mg BID): 7 n
Any Bleeding % [1, 4]: (4.7%)
Major+CRNM bleeding % [1, 4]: (0.7%)
Any Bleeding % ([1]; milvexian 200 mg BID): (3.4%)
Any Bleeding RR vs Enox ([1]; milvexian 200 mg BID): 0.81
Any Bleeding n ([1]; milvexian 200 mg BID): 5 n
Major+CRNM bleeding % ([1]; milvexian 200 mg BID): 0.7%
Major+CRNM bleeding RR vs Enox ([1]; milvexian 200 mg BID): 0.39
Major+CRNM bleeding n ([1]; milvexian 200 mg BID): 1 n
Minimal Bleeding % ([1]; milvexian 200 mg BID): (2.7%)
Minimal Bleeding RR vs Enox ([1]; milvexian 200 mg BID): 0.96
Minimal Bleeding n ([1]; milvexian 200 mg BID): 4 n
Major+CRNM bleeding % ([1]; milvexian 200 mg BID, listed as Milvexian): (0.7%)
Any Bleeding % ([1]; milvexian 200 mg once daily): 6.1%
Any Bleeding RR vs Enox ([1]; milvexian 200 mg once daily): 1.51
Any Bleeding n ([1]; milvexian 200 mg once daily): 9 n
Major+CRNM bleeding % ([1]; milvexian 200 mg once daily): 0.7%
Major+CRNM bleeding RR vs Enox ([1]; milvexian 200 mg once daily): 0.40
Major+CRNM bleeding n ([1]; milvexian 200 mg once daily): 1 n
Minimal Bleeding % ([1]; milvexian 200 mg once daily): (5.4%)
Minimal Bleeding RR vs Enox ([1]; milvexian 200 mg once daily): 2.01
Minimal Bleeding n ([1]; milvexian 200 mg once daily): 8 n
Any Bleeding % [1, 5]: (6.1%)
Major+CRNM bleeding % [1, 5]: (0.7%)
Any Bleeding % [1, 6]: 4.1%
Any Bleeding n [1, 6]: 38 n
Any bleeding RR (CI) vs enoxaparin [1, 6]: 0.99 (0.53-1.85)
Clinically relevant non-major Bleeding % [1, 6]: 0.8%
Clinically relevant non-major Bleeding RR (CI) vs enoxaparin [1, 6]: 0.55 (0.16-1.85)
Clinically relevant non-major Bleeding n [1, 6]: 7 n
Major Bleeding n [1, 6]: no major bleeds; also recorded: No CEC adjudicated major bleeding
Major bleeding or CRNM Bleeding RR (CI) vs enoxaparin [1, 6]: 0.44 (0.14-1.35)
Major+CRNM bleeding % [1, 6]: 0.8%
Major+CRNM bleeding n [1, 6]: 7 n
Minimal Bleeding % [1, 6]: 3.5%
Minimal Bleeding RR (CI) vs enoxaparin [1, 6]: 1.26 (0.59-2.67)
Minimal Bleeding n [1, 6]: 32 n
Major Bleeding n ([1]; milvexian all regimens combined, listed as Milvexian): 0 n
Any Bleeding % [1, 7]: 3.5%
Any Bleeding n [1, 7]: 21 n
Any bleeding RR (CI) vs enoxaparin [1, 7]: 0.86 (0.43-1.71)
Clinically relevant non-major Bleeding % [1, 7]: 0.7%
Clinically relevant non-major Bleeding RR (CI) vs enoxaparin [1, 7]: 0.49 (0.12-1.96)
Clinically relevant non-major Bleeding n [1, 7]: 4 n
Major Bleeding n [1, 7]: 0 n
Major bleeding or CRNM Bleeding RR (CI) vs enoxaparin [1, 7]: 0.39 (0.11-1.44)
Major+CRNM bleeding % [1, 7]: 0.7%
Major+CRNM bleeding n [1, 7]: 4 n
Minimal Bleeding % [1, 7]: 3.0%
Minimal Bleeding RR (CI) vs enoxaparin [1, 7]: 1.10 (0.49-2.49)
Minimal Bleeding n [1, 7]: 18 n
carotid blood flow at 90 minutes (% of control carotid blood flow) ([2]; 0.25+0.17 mg/kg+mg/kg/h IV at 15 minutes after initiation of thrombosis): 39±10%
reduction in thrombus weight ([2]; 0.25+0.17 mg/kg+mg/kg/h IV): 25±7%
carotid blood flow at 90 minutes (% of control carotid blood flow) ([2]; 1+0.67 mg/kg+mg/kg/h IV at 15 minutes after initiation of thrombosis): 66±2%
reduction in thrombus weight ([2]; 1+0.67 mg/kg+mg/kg/h IV): 61±6%
ex vivo PT (aPTT, TT, and PT; prevention ECAT rabbits): did not alter TT and PT significantly
ex vivo TT (aPTT, TT, and PT; prevention ECAT rabbits): did not alter TT and PT significantly
ex vivo aPTT (aPTT, TT, and PT; prevention ECAT rabbits): elevated aPTT significantly at the highest 2 doses
prolongation of aPTT needed to achieve 50% thrombus weight reduction (aPTT, TT, and PT; rabbit ECAT): 1.6 fold
half-life (Half-life of milvexian): ~11 h
